Data on five compounds can be found in patent publication US20030158126A1, “Method of treatment for fungal infections with a synergistic formulation of antifungal agents” (priority 2002, published 2003).

Test [1] deals with Candida albicans. Put plainly: Synergism of menthol, menthyl acetate or their ratios with antifungal drugs (MIC, FIC, fold enhancement). The class given is cell-based, Candida albicans (MTCC1637 equivalent to ATCC 18804). The following applies: for synergism of the individual compound with Clotrimazole, Amphotericin B and Nystatin: individual compound at a concentration of 0.25 μg/ml. On the procedure:
In the present invention Candida albicans (MTCC1637 equivalent to ATCC 18804)=Interdigital mycoses, Neotype strain, production of citric acid) is used for all the experimentations (MTCC=Microbial type culture collection, Institute of Microbial Technology, Chandigarh, India). […]
The fractional inhibitory concentrations (FIC) are calculated by dividing the MIC of the combination with the MIC of antifungal compound alone. The enhancement is calculated by dividing the MIC of the antifungal compound with the MIC of the combination. […] Similarly, the maximum enhancement of Amphotericin is detected for the same set of ratios (2114, 2115, 2116). The enhancement of Nystatin is detected in the combinations with ratios 2112 and 2114. (TABLE 3)

In test [2] the test system is Candida albicans. Put plainly: Minimum inhibitory concentration (MIC) in broth culture of Candida albicans. The class given is cell-based, Candida albicans (MTCC1637 equivalent to ATCC 18804). The following applies: for activity of the components at the concentrations used: proportional concentrations within 0.25 μg/ml. The method, then: In the present invention Candida albicans (MTCC1637 equivalent to ATCC 18804)=Interdigital mycoses, Neotype strain, production of citric acid) is used for all the experimentations (MTCC=Microbial type culture collection, Institute of Microbial Technology, Chandigarh, India).
The minimum inhibitory concentrations (MIC) of the compound menthyl acetate and menthol is determined in broth culture of Candida albicans and is estimated to be […] and 500 μg/ml respectively.
A combination of the two compounds menthol and menthyl acetate in 1:1 ratio is evaluated for synergistic action if any. […] Therefore this combination is further tested for activity against Candida in combination with known antifungal drugs.
Following ratios are prepared by dissolving menthol in menthyl acetate. The ratios are tested for minimum inhibitory concentration in broth cultures of Candida albicans. As mentioned in the TABLE 1, the MIC of ratios are several folds lower than the additive MIC of individual compounds. Identification numbers of the ratios are the numbers given to identify the combination and mean nothing more than this. […] All these combinations are found to be synergistic for antifungal activities.

[3] abbreviates: antifungal drug alone or with menthol/menthyl acetate combination at 0.25 μg/ml.

As for `Clc1ccccc1C(c1ccccc1)(c1ccccc1)n1ccnc1` [Clotrimazole (C), Clotrimazole], the MIC in test [1] (Candida albicans, Clotrimazole (C) + Menthyl acetate (μg/ml), read-out: MIC) stood at 1.25 µg/mL; in test [1] (Clotrimazole (C) + Menthol (μg/ml)), 1.25 μ/ml; in test [1] (setting [3]), 1.25 µg/mL.
As to `C[C@@H]1[C@H](O)[C@@H](C)/C=C/C=C/CC/C=C/C=C/C=C/C=C/C(O[C@H]2O[C@H](C)[C@@H](O)[C@H](N)[C@@H]2O)CC2O[C@](O)(CC(O)C(O)CCC(O)CC(O)CC(O)CC(=O)O[C@H]1C)CC(O)C2C(=O)O` (stereo partly drawn) [Nystatin (N), Nystatin], the MIC in test [1] (Nystatin (N) + Menthol (μg/ml)), in test [1] (Nystatin (N) + Menthyl acetate (μg/ml)) and in test [1] (setting [3]) was 5.0 µg/mL throughout.
For `CC1CCC(C(C)C)C(O)C1` (stereo not drawn) [menthol], the MIC in test [2] (broth culture of Candida albicans, read-out: minimum inhibitory concentrations (MIC)) stood at 500 µg/mL. The “activity of the components at the concentrations used” value in test [2] was “do not have any activity”. Besides, in test [1], the “synergism of the individual compound with Clotrimazole, Amphotericin B and Nystatin” value is listed as “neither menthol nor menthyl acetate could lower the MIC”.
For `CC(=O)OC1CC(C)CCC1C(C)C` (stereo not drawn) [menthyl acetate], the “minimum inhibitory concentrations (MIC)” value in test [2] (broth culture of Candida albicans, printed as a dilution fraction) is on record as 1/400. For the same compound, in test [2], the “activity of the components at the concentrations used” value is on record as “do not have any activity”. For the same compound, the “synergism of the individual compound with Clotrimazole, Amphotericin B and Nystatin” value in test [1] is “neither menthol nor menthyl acetate could lower the MIC”.
As to `C[C@@H]1[C@H](O)[C@@H](C)/C=C/C=C/C=C/C=C/C=C/C=C/C=C/[C@H](O[C@@H]2O[C@H](C)[C@@H](O)[C@H](N)[C@@H]2O)C[C@@H]2O[C@](O)(C[C@@H](O)C[C@@H](O)[C@H](O)CC[C@@H](O)C[C@@H](O)CC(=O)O[C@H]1C)C[C@H](O)[C@H]2C(=O)O` [Amphotericin B (A), Amphotericin B], the MIC in test [1] (Amphotericin B (A) + Menthyl acetate (μg/ml)) turned out to be 2.5 µg/mL; in test [1] (Candida albicans, Amphotericin B (A) + Menthol (μg/ml), read-out: MIC) it was 2.5 µg/mL; in test [1] (setting [3]), 2.5 µg/mL.
